Test results taken from US20060029743A1, “Wood preservatives and methods of wood preservation” (priority 2004, published 2006).
In brackets after ≈: the same amount, converted by molar mass.

Columns and labels:
Irpex lacteus [1] = assay: Soil block test (AWPA E10-01, modified), birch blocks; conditions: for Average weight loss: 3 months
Method: (§1) For the soil block tests, the protocol listed as AWPA (American Wood Preservers' Association) standard E10-01 was used, with some modifications that are noted.
(§2) For pressure treatment, wood blocks (¾ inch cubes) were made from Southern yellow pine (SYP) or birch dried at about 40° C. to constant weight, and weighed before pressure treatment. In a typical experiment, blocks were submerged in an appropriate treatment solution in an autoclave. A vacuum of 10 to 15 inch Hg (380 to 510 torr) was applied for 30 min, followed by a pressure of 150 psi (1.034 MPa) for 1 hr. The treatment solution was then removed and a vacuum of 10 to 15 inch Hg (380 to 510 torr) was applied again to the blocks for 15 min. Excess treatment solution on the surface was allowed to evaporate (30 min in a laboratory fume hood) before the blocks were either weighed or stored in a sealed plastic bag and weighed at a later time.
(§3) For the soil block test, wood blocks were conditioned in a vented incubator at 40° C. until they reached a constant weight (16 to 18 hrs). Blocks were then autoclaved at 100° C. for 30 min under dry cycle. Soil samples with a water holding capacity of 40% were used for these tests. 60 mL of water and 92-100 g of soil were added into a 228 mL French square bottle, and autoclaved at 121° C. for 30 min. A feeder strip, ⅛″×1⅛″×1⅜″ (˜0.31 cm×2.86 cm×3.49 cm), birch for birch blocks and SYP for SYP blocks, was placed on the top of the soil. A testing block was placed on top of the feeder strip and the bottle contents inoculated with an agar strip (˜3 mm×30 mm) containing freshly grown fungus (listed in the results). For brown rot fungi (Postia placenta), SYP blocks and feeder strips were used. For white rot (Irpex lacteus), birch blocks and feeder strips were used. The bottles were loosely capped and allowed to incubate at ˜75% humidity and 25° C. for 3 months. Then the blocks were removed from the bottles and dried at 40° C. to constant weight in a vented incubator (16-18 hr). The weight of each block was determined and the percent weight loss was calculated.
(§4) Blocks were allowed to age for a week in the fume hood after treatment. Half of the blocks were subjected to leaching with water for an additional week before undergoing the soil block test. For leaching, blocks were placed in a beaker and 30 mL of water per block were added. Blocks were allowed to incubate at room temperature under constant stirring, with daily change of water for one week.

Gloeophyllum trabeum = assay: 6-well plate assay, minimal inhibitory concentration; type: cell-based; conditions: Gloeophyllum trabeum, 168 h; 6-well agar plate; lowest concentration with no growth after seven days; read-out: Effectiveness at Inhibiting Wood-Rotting Fungi, BR2 (minimal inhibitory concentration)
Method: (§5) The minimal inhibitory concentration of fungicides against eight fungi was determined in 6-well microtiter plates. Minimal inhibitory concentration is defined as the lowest concentration at which no fungus growth is evident after seven days. A group of eight fungi were used in a screen to identify potential active ingredients to preserve wood. The eight fungi, their classification, and the growth media used to culture them are listed below:
(§6) Growth media were purchased from Difco (from Beckton Dickinson and Co., Sparks, Md.). The growth media were added to water to 2% w/v and autoclaved at 121° C. for 30 min. Autoclaved media were allowed to cool down to ˜50° C. Test chemicals were dissolved in DMSO (dimethyl sulfoxide) individually at 10 mg/mL to generate stock solutions. An appropriate amount of a stock solution was then added to the appropriate growth medium at 50° C. to make up the test media containing various concentrations of individual test chemicals. 10 mL of the medium was added to each well of a 6-well plate and allowed to solidify at room temperature. For each plate, the first well had no chemical, and the remaining five wells contained a particular test chemical at five different concentrations. Eight such plates were prepared for each chemical, using the eight media listed above for the eight test organisms.
(§7) After the media solidified and cooled, a plug (˜2 mm×2 mm) of agar growth medium with fresh grown mycelium from the appropriate fungal culture was used to inoculate each well. The plate was placed in an incubator, and the growth of the fungus monitored. After 4 to 7 days, the growth was scored manually.

[2] = system: Phanerochaete chrysosporium; assay: as above; type: cell-based; conditions: Phanerodontia chrysosporium, 168 h; 6-well agar plate; lowest concentration with no growth after seven days; read-out: Effectiveness at Inhibiting Wood-Rotting Fungi, WR3 (minimal inhibitory concentration)
Method: as §5, §6, §7

Trametes versicolor = assay: as above; type: cell-based; conditions: Trametes versicolor, 168 h; 6-well agar plate; lowest concentration with no growth after seven days; read-out: Effectiveness at Inhibiting Wood-Rotting Fungi, WR1 (minimal inhibitory concentration)
Method: as §5, §6, §7

Chaetomium globosum = assay: as above; type: cell-based; conditions: Chaetomium globosum, 168 h; 6-well agar plate; lowest concentration with no growth after seven days; read-out: Effectiveness at Inhibiting Wood-Rotting Fungi, SR1 (minimal inhibitory concentration)
Method: as §5, §6, §7

Antrodia vaillantii = assay: as above; type: cell-based; conditions: Fibroporia vaillantii, 168 h; 6-well agar plate; lowest concentration with no growth after seven days; read-out: Effectiveness at Inhibiting Wood-Rotting Fungi, BR3 (minimal inhibitory concentration)
Method: as §5, §6, §7

Postia placenta [3] = assay: as above; type: cell-based; conditions: Rhodonia placenta, 168 h; 6-well agar plate; lowest concentration with no growth after seven days; read-out: Effectiveness at Inhibiting Wood-Rotting Fungi, BR1 (minimal inhibitory concentration)
Method: as §5, §6, §7

Irpex lacteus [4] = assay: as above; type: cell-based; conditions: Irpex lacteus, 168 h; 6-well agar plate; lowest concentration with no growth after seven days; read-out: Effectiveness at Inhibiting Wood-Rotting Fungi, WR2 (minimal inhibitory concentration)
Method: as §5, §6, §7

Postia placenta [5] = assay: Soil block test (AWPA E10-01, modified), SYP blocks; conditions: for Average weight loss: 3 months
Method: as §1, §2, §3, §4
SYP blocks were pressure-treated with this solution as above (Example 2). After treatment, the blocks were divided into groups and allowed to age in the hood for either two days or 14 days. The blocks were then placed in a beaker and submerged under water (50 mL water per block), under constant stirring for two weeks. […]

**Q.** What does the source list for `C[Si](Cn1cncn1)(c1ccc(F)cc1)c1ccc(F)cc1` [Flusilazole]?
**A.** Average weight loss (Irpex lacteus [1]; birch blocks pressure-treated with 50 ppm solution in 5% acetic acid): 19.5%; Average weight loss (Irpex lacteus [1]; birch blocks pressure-treated with 100 ppm solution in 5% acetic acid): 21.7%; Average weight loss (Irpex lacteus [1]; birch blocks pressure-treated with 200 ppm solution in 5% acetic acid): 11%; Protection against decay (in words) (Irpex lacteus [1]; birch blocks, 200 ppm flusilazole solution): significantly protected from decay; MIC (Gloeophyllum trabeum): 1 to 100 µg/mL (≈ 3.17 to 317 µM); MIC [2]: 1 to 100 µg/mL (≈ 3.17 to 317 µM); MIC (Trametes versicolor): < 1 µg/mL; MIC (Chaetomium globosum): < 1 µg/mL; MIC (Antrodia vaillantii): < 1 µg/mL; MIC (Postia placenta [3]): < 1 µg/mL; MIC (Irpex lacteus [4]): 1 to 100 µg/mL (≈ 3.17 to 317 µM); Average weight loss (Postia placenta [5]; SYP blocks pressure-treated with 50 ppm solution in 5% acetic acid): 29%; Average weight loss (Postia placenta [5]; SYP blocks pressure-treated with 100 ppm solution in 5% acetic acid): 19%; Average weight loss (Postia placenta [5]; SYP blocks pressure-treated with 200 ppm solution in 5% acetic acid): 3.3%; Protection against decay (in words) (Postia placenta [5]; SYP blocks, 200 ppm flusilazole solution): protected against decay
